Source: US8609852B2, “Thiazolyl mGluR5 antagonists and methods for their use” (Merck Sharp & Dohme Corp., priority 2004, dated 2013)

Columns and labels:
[1] = aqueous medium
[2] = target: metabotropic glutamate receptor subtype 5 (Rattus norvegicus (Rat), UniProt P31424); assay: [3H]-mGluR5 Antagonist Binding to Rodent Brain Membranes
Protocol: In accordance with Anderson J J, Rao S P, Rowe B, Giracello D R, Holtz G, Chapman D F, Tehrani L, Bradbury M J, Cosford N D, Varney M A, [^3H]Methoxymethyl-3-[(2-methyl-1,3-thiazol-4-yl)ethynyl]pyridine binding to metabotropic glutamate receptor subtype 5 in rodent brain: in vitro and in vivo characterization. J Pharmacol Exp Ther. 2002 December; 303 (3):1044-51, membranes were prepared (as described in Ransom R W and Stec N L (1988) Cooperative modulation of [^3H]MK-801 binding to the N-methyl-D-aspartate receptor-ion channel complex by L-glutamate, glycine, and polyamines. J Neurochem 51:830-836) using whole rat brain, or mGlu5^+/+ or mGlu5^−/− whole mouse brain.
Binding assays were performed as described in Schaffhauser H, Richards J G, Cartmell J, Chaboz S, Kemp J A, Klingelschmidt A, Messer J, Stadler H, Woltering T and Mutel V (1998) In vitro binding characteristics of a new selective group II metabotropic glutamate receptor radioligand, [^3H]LY354740, in rat brain. Mol Pharmacol 53:228-233) at room temperature with slight modifications. Briefly, membranes were thawed and washed once with assay buffer (50 mM HEPES, 2 mM MgCl2, pH 7.4), followed by centrifugation at 40,000×g for 20 min. The pellet was resuspended in assay buffer and briefly homogenized with a Polytron.
For protein linearity experiments, increasing concentrations of membrane protein were added to 96-well plates in triplicate and binding was initiated by addition of 20 nM [^3H]methoxymethyl-3-[(2-methyl-1,3-thiazol-4-yl)ethynyl]pyridine. The assay was incubated for 2 h and non-specific binding was determined using 10 μM MPEP. The binding was terminated by rapid filtration through glass-fiber filters (Unifilter-96 GF/B plate, Packard) using a 96-well plate Brandel cell harvester. Following addition of scintillant, the radioactivity was determined by liquid scintillation spectrometry. Protein measurements were performed by BioRad-DC Protein assay using bovine serum albumin as the standard.
Saturation binding experiments were performed in triplicate with increasing concentrations of [^3H]methoxymethyl-3-[(2-methyl-1,3-thiazol-4-yl)ethynyl]pyridine (1 pM to 100 nM). The time course of association was measured by the addition of 10 nM [^3H]methoxymethyl-3-[(2-methyl-1,3-thiazol-4-yl)ethynyl]pyridine to the membranes at different time points (0-240 min), followed by filtration. Dissociation was measured by the addition of 100 μM unlabeled methoxymethyl-3-[(2-methyl-1,3-thiazol-4-yl)ethynyl]pyridine at different time points to membranes previously incubated for 3 h with 10 nM [^3H]methoxymethyl-3-[(2-methyl-1,3-thiazol-4-yl)ethynyl]pyridine. For competition experiments, 100 μg membrane protein and 10 nM [^3H]methoxymethyl-3-[(2-methyl-1,3-thiazol-4-yl)ethynyl]pyridine was added to wells containing increasing concentration of the test compound in duplicate (methoxymethyl-3-[(2-methyl-1,3-thiazol-4-yl)ethynyl]pyridine or MPEP). [^3H]-3-Methoxy-5-(pyridin-2-ylethynyl)pyridine may also be used as the radioligand in the procedure described above. (See, Cosford, N. D. P.; Roppe, J.; Tehrani, L.; Seiders, T. J.; Schweiger, E. J. et al. [3H]-Methoxymethyl-MTEP and [3H]-methoxy-PEPy): Potent and selective radioligands for the Metabotropic Glutamate Subtype 5 (mGlu5) Receptor. Bioorg. Med. Chem. Lett. 2003, 13, 351-354.)

[3] = target: hmGluR5 (Homo sapiens (Human), UniProt P41594); assay: Phosphatidylinositol Hydrolysis (IP) Assay; assay type: cell-based; conditions: hmGluR5/L38-20 cells
Protocol: Inositol phophate assays were performed as described by Berridge et al. (1982) (Berridge et al, (1982) Biochem. J. 206: 587-5950; and Nakajima et al., J. Biol. Chem. 267:2437-2442 (1992)) with slight modifications. Mouse fibroblast Ltk cells expressing hmGluR5 (hmGluR5/L38-20 cells) were seeded in 24-well plates at a density of 8×10^5 cells/well. […] of [^3H]-inositol (Amersham PT6-271; Arlington Heights, Ill.; specific activity=17.7 Ci/mmol) was added to each well and incubated for 16 h at 37° C. Cells were washed twice and incubated for 45 min in 0.5 ml of standard Hepes buffered saline buffer (HBS; 125 mM NaCl, 5 mM KCl, […] MgS04, 1.8 mM CaCl2, 20 mM HEPES, 6 mM glucose, pH to 7.4). The cells were washed with HBS containing 10 mM LiCl, and 400 ill buffer added to each well. Cells were incubated at 37° C. for 20 min. For testing, […], of 10× compounds used in the practice of the invention [made in HBS/LiCl (100 mM)] was added and incubated for 10 minutes. Cells were activated by the addition of […] glutamate, and the plates left for 1 hour at 37° C.
The incubations were terminated by the addition of 1 mL ice-cold methanol to each well. In order to isolate inositol phosphates (IPs), the cells were scraped from wells, and placed in numbered glass test tubes. […] Scintillant was added to each vial, and the vials shaken, and counted in a scintillation counter after 2 hours. […]

[4] = target: hmGluR5a receptor (Homo sapiens (Human), UniProt P41594); assay: Calcium Flux Assay; assay type: cell-based; conditions: hmGluR5a/L38-20 cells, glutamate-evoked [Ca2+]i
Protocol: The activity of compounds was examined against the hmGluR5a receptor stably expressed in mouse fibroblast Ltk− cells (the hmGluR5a/L38-20 cell line). See generally Daggett et al., Neuropharmacology 34:871-886 (1995). Receptor activity was detected by changes in intracellular calcium ([Ca^2+]i) measured using the fluorescent calcium-sensitive dye, fura-2. hmGluR5a/L38-20 cells were plated onto 96-well plates, and loaded with 3 µM fura-2 for 1 h. Unincorporated dye was washed from the cells, and the cell plate was transferred to a custom-built 96-channel fluorimeter (SIBIA-SAIC, La Jolla, Calif.) which is integrated into a fully automated plate handling and liquid delivery system. Cells were excited at 350 and 385 nm with a xenon source combined with optical filters. Emitted light was collected from the sample through a dichroic mirror and a 510 nm interference filter and directed into a cooled CCD camera (Princeton Instruments). Image pairs were captured approximately every 1 s, and ratio images were generated after background subtraction. After a basal reading of 20 s, an EC80 concentration of glutamate ([…]) was added to the well, and the response evaluated for another 60 s. The glutamate-evoked increase in [Ca^2+]i in the presence of the screening compound was compared to the response of glutamate alone (the positive control).

Sequence of metabotropic glutamate receptor subtype 5 (P31424 21-1203): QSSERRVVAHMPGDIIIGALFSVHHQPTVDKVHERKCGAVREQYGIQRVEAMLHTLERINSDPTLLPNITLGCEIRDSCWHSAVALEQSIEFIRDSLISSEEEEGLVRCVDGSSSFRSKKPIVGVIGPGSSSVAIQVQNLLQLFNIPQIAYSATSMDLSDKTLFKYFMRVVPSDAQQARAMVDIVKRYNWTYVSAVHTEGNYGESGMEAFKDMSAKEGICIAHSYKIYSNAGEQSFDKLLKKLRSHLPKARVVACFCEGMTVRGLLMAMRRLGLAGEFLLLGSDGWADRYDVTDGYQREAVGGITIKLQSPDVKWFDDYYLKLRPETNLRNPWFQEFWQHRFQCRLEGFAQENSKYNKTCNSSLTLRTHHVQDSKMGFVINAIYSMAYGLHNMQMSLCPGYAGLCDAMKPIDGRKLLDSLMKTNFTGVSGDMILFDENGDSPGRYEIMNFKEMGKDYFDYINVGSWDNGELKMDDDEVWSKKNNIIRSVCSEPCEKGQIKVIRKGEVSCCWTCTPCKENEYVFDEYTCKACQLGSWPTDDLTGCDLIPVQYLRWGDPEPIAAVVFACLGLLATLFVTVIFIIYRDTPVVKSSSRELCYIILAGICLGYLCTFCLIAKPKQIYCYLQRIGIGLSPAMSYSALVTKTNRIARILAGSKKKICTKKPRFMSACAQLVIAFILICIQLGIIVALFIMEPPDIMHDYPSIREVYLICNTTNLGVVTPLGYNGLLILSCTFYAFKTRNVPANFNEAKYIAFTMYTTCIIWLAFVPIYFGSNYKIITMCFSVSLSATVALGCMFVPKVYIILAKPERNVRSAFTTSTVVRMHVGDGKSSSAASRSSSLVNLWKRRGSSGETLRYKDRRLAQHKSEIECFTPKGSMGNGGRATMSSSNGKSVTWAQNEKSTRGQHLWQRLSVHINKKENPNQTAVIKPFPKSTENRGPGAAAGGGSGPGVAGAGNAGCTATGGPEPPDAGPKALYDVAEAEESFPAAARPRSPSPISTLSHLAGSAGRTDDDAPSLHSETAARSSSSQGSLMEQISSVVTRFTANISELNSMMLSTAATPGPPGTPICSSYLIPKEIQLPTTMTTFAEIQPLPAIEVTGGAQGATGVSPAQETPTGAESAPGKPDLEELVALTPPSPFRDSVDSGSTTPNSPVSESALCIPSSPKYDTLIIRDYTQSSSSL
Sequence of hmGluR5a receptor (P41594 other isoform, or with tags, fused parts or gaps): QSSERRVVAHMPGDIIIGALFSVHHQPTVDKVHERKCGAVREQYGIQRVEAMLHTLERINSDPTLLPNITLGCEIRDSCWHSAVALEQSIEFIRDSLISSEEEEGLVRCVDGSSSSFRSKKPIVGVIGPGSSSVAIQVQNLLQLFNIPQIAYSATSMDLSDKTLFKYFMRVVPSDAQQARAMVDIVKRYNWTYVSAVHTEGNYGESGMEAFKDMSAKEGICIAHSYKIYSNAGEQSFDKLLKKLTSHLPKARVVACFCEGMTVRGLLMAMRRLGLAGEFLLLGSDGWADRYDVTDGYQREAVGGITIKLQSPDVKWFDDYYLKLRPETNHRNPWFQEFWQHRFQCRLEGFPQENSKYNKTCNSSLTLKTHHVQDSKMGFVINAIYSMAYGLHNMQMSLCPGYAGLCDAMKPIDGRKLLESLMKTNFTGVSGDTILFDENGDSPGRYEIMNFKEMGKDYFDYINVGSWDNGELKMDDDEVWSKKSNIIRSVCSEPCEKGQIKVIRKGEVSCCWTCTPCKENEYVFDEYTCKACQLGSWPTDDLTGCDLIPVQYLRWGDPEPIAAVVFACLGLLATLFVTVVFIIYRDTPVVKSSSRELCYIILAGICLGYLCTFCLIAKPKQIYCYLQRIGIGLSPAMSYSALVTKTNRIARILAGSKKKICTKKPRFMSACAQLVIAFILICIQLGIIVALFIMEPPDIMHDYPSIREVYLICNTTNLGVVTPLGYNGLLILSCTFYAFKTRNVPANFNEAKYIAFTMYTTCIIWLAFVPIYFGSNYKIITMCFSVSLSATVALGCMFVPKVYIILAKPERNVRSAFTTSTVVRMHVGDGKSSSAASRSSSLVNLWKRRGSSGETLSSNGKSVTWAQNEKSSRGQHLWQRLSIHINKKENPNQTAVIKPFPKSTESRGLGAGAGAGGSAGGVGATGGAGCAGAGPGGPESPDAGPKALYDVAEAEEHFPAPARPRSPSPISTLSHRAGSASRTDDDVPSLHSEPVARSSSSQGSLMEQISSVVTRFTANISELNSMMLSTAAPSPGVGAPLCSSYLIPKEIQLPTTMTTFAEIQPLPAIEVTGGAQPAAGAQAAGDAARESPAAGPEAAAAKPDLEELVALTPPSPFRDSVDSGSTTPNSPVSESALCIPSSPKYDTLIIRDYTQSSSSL
Sequence of hmGluR5 (P41594 other isoform, or with tags, fused parts or gaps): as above

Row | SMILES | solubility [1] | Ki [2] | IC50 [3] | IC50 [4]
1 | C(#Cc1nccs1)c1ccccc1.Cc1ccc(S(=O)(=O)O)cc1 [2-(phenylethynl)-1,3-thiazole] | soluble in aqueous medium |  |  | 
2 | Cc1nc(C#Cc2ccc(-c3cc(F)cc(C#N)c3)nc2)cs1 [Example 1, 3-fluoro-5-{5-[(2-methyl-1,3-thiazol-4-yl)ethynyl]pyridin-2-yl}benzonitrile] |  | 20 nM | 33 nM | 3 nM
3 | Cc1nc(C#Cc2ccc(-n3ccc4ccncc43)nc2)cs1 [Example 18, 1-{5-[(2-methyl-1,3-thiazol-4-yl)ethynyl]pyridin-2-yl}-1H-pyrrolo[2,3-c]pyridine] |  | 19.3 nM | 2 nM | 4.9 nM
4 | CCC(C)Nc1ncc(C#Cc2csc(C)n2)cn1 (stereo not drawn) [Example 94] |  | 6 nM |  | 9 nM
5 | Cc1nc(C#Cc2cnc(O[C@@H](C)c3ccccc3)nc2)cs1 [Example 95] |  | 9 nM |  | 8 nM
6 | Cc1nc(C#Cc2cnc(N3CCCCC3C)nc2)cs1 (stereo not drawn) [Example 96] |  | 5 nM |  | 5 nM
7 | Cc1nc(C#Cc2cnc(N3CCCC3)nc2)cs1 [Example 97] |  | 13 nM |  | 5 nM
8 | CCN(CC)c1ncc(C#Cc2csc(C)n2)cn1 [Example 98] |  | 8 nM |  | 4 nM
9 | Cc1nc(C#Cc2cnc(-n3ccc4ccncc43)nc2)cs1 [Example 99] |  | 33 nM |  | 2.8 nM
10 | Cc1nc(C#Cc2cnc(N3CCSCC3)nc2)cs1 [Example 100] |  | 23 nM |  | 2.3 nM
11 | Cc1nc(C#Cc2cnc(OC3CCN(C(=O)OC(C)(C)C)CC3)nc2)cs1 [Example 101] |  | 24 nM |  | 2 nM
12 | Cc1nc(C#Cc2cnc(NC3CCCC3)nc2)cs1 [Example 102] |  | 26 nM |  | 2 nM
13 | Cc1nc(C#Cc2cnc(N3CCCC(C)C3)nc2)cs1 (stereo not drawn) [Example 103] |  | 1.6 nM |  | 1.6 nM
14 | Cc1nc(C#Cc2cnc(N3CC=CC3)nc2)cs1 [Example 104] |  | 6 nM |  | 1.5 nM
15 | Cc1nc(C#Cc2cnc(NC(C)(C)C)nc2)cs1 [Example 105] |  | 1 nM |  | 1 nM
16 | Cc1nc(C#Cc2cnc(N3CCCCC3CO)nc2)cs1 (stereo not drawn) [Example 107] |  | 9 nM |  | 16 nM
